Results as given in PubChem BioAssay AID250 (DTP/NCI, 2004).
Values joined by “and” are separate entries in the source; they are usually repeats but may differ in a detail not shown here. Equal values may be shown once. Toxic doses and inconclusive results are not listed.

Tested on: BDF1 mice, L1210 leukemia sc, survival T/C
Assay: NCI In Vivo Anticancer Drug Screen. Data for tumor model L1210 Leukemia (subcutaneous) in B6D2F1 (BDF1) mice
Settings: higher = longer survival
Summary of the method: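 Transplantable tumor-bearing mice; survival or tumor size recorded; result = T/C, treated vs vehicle control.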

[1] = endpoint: median survival time, dose: 65.0 mg/kg/injection, schedule: Q01DX Z (sc), vehicle: methylcellulose (MC)
[2] = endpoint: median survival time, dose: 108.0 mg/kg/injection, schedule: Q01DX Z (sc), vehicle: methylcellulose (MC)
[3] = endpoint: median survival time, dose: 180.0 mg/kg/injection, schedule: Q01DX Z (sc), vehicle: methylcellulose (MC)

Compound: COc1cc(NS(C)(=O)=O)ccc1Nc1c2cccc(C)c2nc2c(C)cccc12
- T/C (endpoint: mean survival time, dose: 6.25 mg/kg/injection, schedule: Q01DX009 (ip), vehicle: Klucel (hydroxypropylcellulose) (HPC)): 100 % of control
- T/C (endpoint: mean survival time, dose: 12.5 mg/kg/injection, schedule: Q01DX009 (ip), vehicle: Klucel (hydroxypropylcellulose) (HPC)): 103 % of control
- T/C (endpoint: mean survival time, dose: 25.0 mg/kg/injection, schedule: Q01DX009 (ip), vehicle: Klucel (hydroxypropylcellulose) (HPC)): 102 % of control
- T/C (endpoint: mean survival time, dose: 50.0 mg/kg/injection, schedule: Q01DX009 (ip), vehicle: Klucel (hydroxypropylcellulose) (HPC)): 103 % of control

Compound: C=C(C)c1ccc(/C=N/NC(N)=S)cc1
- T/C (endpoint: median survival time, dose: 39.0 mg/kg/injection, schedule: Q01DX Z (sc), vehicle: methylcellulose (MC)): 109 % of control
- T/C [1]: 109 % of control
- T/C [2]: 109 % of control
- T/C [3]: 109 % of control
- T/C (endpoint: median survival time, dose: 300.0 mg/kg/injection, schedule: Q01DX Z (sc), vehicle: methylcellulose (MC)): 113 % of control
- T/C (endpoint: median survival time, dose: 500.0 mg/kg/injection, schedule: Q01DX Z (sc), vehicle: methylcellulose (MC)): 109 % of control

Compound: CCC(=O)O[C@H]1CC[C@H]2[C@@H]3CC[C@H]4CC(=O)[C@H](C)C[C@]4(C)[C@H]3CC[C@]12C
- T/C (endpoint: median survival time, dose: 23.0 mg/kg/injection, schedule: Q01DX Z (sc), vehicle: methylcellulose (MC)): 100 % of control
- T/C [1]: 100 % of control
- T/C [2]: 100 % of control
- T/C [3]: 100 % of control

Compound: C=CC(O)CN1CC1 (stereo not drawn)
- T/C (endpoint: median survival time, dose: 0.65 mg/kg/injection, schedule: Q01DX Z (sc), vehicle: saline): 100 % of control
- T/C (endpoint: median survival time, dose: 1.08 mg/kg/injection, schedule: Q01DX Z (sc), vehicle: saline): 100 % of control
- T/C (endpoint: median survival time, dose: 1.7 mg/kg/injection, schedule: Q01DX Z (sc), vehicle: saline): 100 % of control
- T/C (endpoint: median survival time, dose: 1.8 mg/kg/injection, schedule: Q01DX Z (sc), vehicle: saline): 100 % of control
- T/C (endpoint: median survival time, dose: 2.8 mg/kg/injection, schedule: Q01DX Z (sc), vehicle: saline): 111 % of control
- T/C (endpoint: median survival time, dose: 3.0 mg/kg/injection, schedule: Q02DX Z (sc), vehicle: saline): 104 % of control
- T/C (endpoint: median survival time, dose: 4.7 mg/kg/injection, schedule: Q01DX Z (sc), vehicle: saline): 160 % of control
- T/C (endpoint: median survival time, dose: 5.0 mg/kg/injection, schedule: Q01DX Z (sc), vehicle: saline): 155 % of control and 159 % of control and 163 % of control
- T/C (endpoint: median survival time, dose: 5.0 mg/kg/injection, schedule: Q02DX Z (sc), vehicle: saline): 118 % of control
- T/C (endpoint: median survival time, dose: 7.8 mg/kg/injection, schedule: Q01DX Z (sc), vehicle: saline): 170 % of control and 177 % of control
- T/C (endpoint: median survival time, dose: 8.4 mg/kg/injection, schedule: Q01DX Z (sc), vehicle: saline): 122 % of control
- T/C (endpoint: median survival time, dose: 8.4 mg/kg/injection, schedule: Q## X Z (sc), vehicle: saline): 109 % of control
- T/C (endpoint: median survival time, dose: 14.0 mg/kg/injection, schedule: Q01DX Z (sc), vehicle: saline): 113 % of control
- T/C (endpoint: median survival time, dose: 14.0 mg/kg/injection, schedule: Q02DX Z (sc), vehicle: saline): 181 % of control
- T/C (endpoint: median survival time, dose: 14.0 mg/kg/injection, schedule: Q## X Z (sc), vehicle: saline): 118 % of control
- T/C (endpoint: median survival time, dose: 21.6 mg/kg/injection, schedule: Q01DX Z (sc), vehicle: saline): 110 % of control
- T/C (endpoint: median survival time, dose: 23.0 mg/kg/injection, schedule: Q01DX Z (sc), vehicle: saline): 100 % of control
- T/C (endpoint: median survival time, dose: 23.0 mg/kg/injection, schedule: Q02DX Z (sc), vehicle: saline): 150 % of control
- T/C (endpoint: median survival time, dose: 23.0 mg/kg/injection, schedule: Q## X Z (sc), vehicle: saline): 154 % of control
- T/C (endpoint: median survival time, dose: 36.0 mg/kg/injection, schedule: Q01DX Z (sc), vehicle: saline): 111 % of control
- T/C (endpoint: median survival time, dose: 39.0 mg/kg/injection, schedule: Q## X Z (sc), vehicle: saline): 159 % of control
- T/C (endpoint: median survival time, dose: 60.0 mg/kg/injection, schedule: Q01DX Z (sc), vehicle: saline): 100 % of control
- T/C (endpoint: median survival time, dose: 65.0 mg/kg/injection, schedule: Q01DX001 (sc), vehicle: saline): 118 % of control
- T/C (endpoint: median survival time, dose: 65.0 mg/kg/injection, schedule: Q02DX Z (sc), vehicle: saline): 104 % of control
- T/C (endpoint: median survival time, dose: 65.0 mg/kg/injection, schedule: Q## X Z (sc), vehicle: saline): 109 % of control

Compound: CS(=O)(=O)Nc1ccc(Nc2c3ccccc3nc3cc(Cl)ccc23)cc1
- T/C (endpoint: mean survival time, dose: 10.0 mg/kg/injection, schedule: Q01DX009 (sc), vehicle: saline): 104 % of control
- T/C (endpoint: mean survival time, dose: 20.0 mg/kg/injection, schedule: Q01DX009 (sc), vehicle: saline): 112 % of control
- T/C (endpoint: mean survival time, dose: 40.0 mg/kg/injection, schedule: Q01DX009 (sc), vehicle: saline): 113 % of control
- T/C (endpoint: mean survival time, dose: 80.0 mg/kg/injection, schedule: Q01DX009 (sc), vehicle: saline): 124 % of control

Compound: CN(C)N=Nc1ccc(CCCC(=O)NN)cc1
- T/C (endpoint: median survival time, dose: 23.0 mg/kg/injection, schedule: Q01DX Z (sc), vehicle: carboxymethylcellulose (CMC)): 109 % of control
- T/C (endpoint: median survival time, dose: 39.0 mg/kg/injection, schedule: Q01DX Z (sc), vehicle: carboxymethylcellulose (CMC)): 118 % of control
- T/C (endpoint: median survival time, dose: 65.0 mg/kg/injection, schedule: Q01DX Z (sc), vehicle: carboxymethylcellulose (CMC)): 109 % of control
- T/C (endpoint: median survival time, dose: 108.0 mg/kg/injection, schedule: Q01DX Z (sc), vehicle: carboxymethylcellulose (CMC)): 109 % of control
- T/C (endpoint: median survival time, dose: 180.0 mg/kg/injection, schedule: Q01DX Z (sc), vehicle: carboxymethylcellulose (CMC)): 113 % of control
